Test results as given in patent publication US12630497B2, “Compound having malate dehydrogenase inhibitory activity and pharmaceutical composition for preventing or treating cancer comprising same as active ingredient” (DONGGUK UNIVERSITY INDUSTRY-ACADEMIC COOPERATION FOUNDATION, priority 2017, dated 2026).

How the values were obtained:
HCT-116 cells [1] = assay: Intracellular oxygen concentration, hypoxia-sensitive fluorescent probe MAR; assay type: cell-based; settings: hypoxia 6 hours, MAR probe 0.5 μM
Procedure: Afterward, an intracellular change in fluorescence intensity by hypoxia was measured and quantified using the IncuCyte® live-cell analysis system (Essen BioScience).

786-O = assay: Cell proliferation inhibition (methylene blue); assay type: cell-based; settings: Homo sapiens, 786-0; 786-O kidney and renal cancer cell line, 72 hours; read-out: Viability GI50
Source text: (§1) Cell lines used in the experiment are lung cancer cell lines A549 and H1703, colorectal cancer cell lines HCT116 and HT29, liver cancer cell lines Hep3B and HepG2, gastric or stomach cancer cell lines NUGC-3 and AGS, kidney and renal cancer cell lines 786-O and Caki-1, breast cancer cell lines MCF-7 and MDA-MB-231, a prostate cancer cell line PC3, a pancreatic cancer cell line MIA-PaCa-2, a cervical cancer cell line HeLa, and normal cell lines WI-38 and CCD-32Lu. Specifically, each of the cell lines was suspended in DMEM containing 5% FBS, transferred to a 96-well plate (3×10^3 cells/well), and cultured in a 37 □ cell incubator maintaining 5% carbon dioxide for 24 hours. […] Afterward, a change in the concentration of methylene blue extracted with a 0.5% aqueous hydrochloric acid solution was analyzed by measuring absorbance at 600 nm.

Hep3B = assay: Cell proliferation inhibition (methylene blue); assay type: cell-based; settings: Homo sapiens; Hep3B liver cancer cell line, 72 hours; read-out: Viability GI50
Source text: as §1

MIA PaCa-2 = assay: Cell proliferation inhibition (methylene blue); assay type: cell-based; settings: Homo sapiens; MIA PaCa-2 pancreatic cancer cell line, 72 hours; read-out: Viability GI50
Source text: as §1

HeLa = assay: Cell proliferation inhibition (methylene blue); assay type: cell-based; settings: Homo sapiens; HeLa cervical cancer cell line, 72 hours; read-out: Viability GI50
Source text: as §1

Caki-1 = assay: Cell proliferation inhibition (methylene blue); assay type: cell-based; settings: Homo sapiens; Caki-1 kidney and renal cancer cell line, 72 hours; read-out: Viability GI50
Source text: as §1

A549 = assay: Cell proliferation inhibition (methylene blue); assay type: cell-based
Source text: as §1

HCT116 = assay: Cell proliferation inhibition (methylene blue); assay type: cell-based
Source text: as §1

HIF-1α = HIF-1α inhibitory activity, immunoblot in hypoxic HCT-116 cells; assay type: cell-based; settings: HCT-116, hypoxia (1% oxygen) 6 hours; 2.5, 5 and 10 μM
Procedure: Hypoxia-inducible factor-1α (HIF-1α) is a factor that affects radioresistance and chemoresistance in solid cancer and malignancy of cancer. More specifically, an HCT-116 colorectal cancer cell line was suspended in DMEM containing 5% fetal bovine serum (FBS), transferred to a 6-well plate (5×10^5 cells/well), and cultured in a 37 D cell incubator maintaining 5% carbon dioxide for 24 hours. To induce the accumulation of HIF-1a protein by hypoxia, the cells were cultured under 1% oxygen, 94% nitrogen and 5% carbon dioxide conditions for 6 hours. The HCT-116 cells were disrupted using a radioimmunoprecipitation assay buffer (RIPA buffer, Millipore), thereby obtaining a cell extract, and 10 μg each of the cell extract was isolated through SDS-PAGE, transferred to a polyvinylidene fluoride (PVDF) membrane, followed by sequentially binding of a HIF-1α antibody (BD Biosciences), a HIF-1β antibody (BD Biosciences), a β-Actin (SantaCruz) and horseradish peroxidase (HRP)-labeled secondary antibody (SantaCruz) to confirm protein expression.

MDH1 = target: T1, MDH1 (Homo sapiens, UniProt P40925); assay: MDH1 inhibitory activity (in vitro, NADH oxidation, absorbance 340 nm); assay type: biochemical; set-up: purchased Biovision; settings: 0.25 nM MDH1 recombinant protein, 200 μM oxaloacetate, 30 minutes
T1 sequence (P40925 1-334): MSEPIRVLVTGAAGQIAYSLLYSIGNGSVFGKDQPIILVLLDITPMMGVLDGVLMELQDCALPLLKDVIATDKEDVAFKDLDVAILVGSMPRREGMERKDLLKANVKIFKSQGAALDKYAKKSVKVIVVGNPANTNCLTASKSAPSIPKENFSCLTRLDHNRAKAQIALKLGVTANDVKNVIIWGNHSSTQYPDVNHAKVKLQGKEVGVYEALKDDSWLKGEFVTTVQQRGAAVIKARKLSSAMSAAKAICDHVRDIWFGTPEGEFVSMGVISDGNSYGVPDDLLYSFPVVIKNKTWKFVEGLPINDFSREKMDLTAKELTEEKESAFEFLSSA

HCT-116 cells [2] = assay: Mitochondrial oxygen consumption rate (XF24 extracellular flux analyzer); assay type: cell-based
Procedure: More specifically, a mitochondrial oxygen consumption rate (OCR) was measured using a XF24 extracellular flux analyzer (Seahorse Bioscience). HCT-116 cells (1×10^5 cells) were cultured in a culture plate (XF24 cell culture plate) for 24 hours, the culture medium was exchanged with a XF assay medium, and then the cells were incubated in a carbon dioxide-free cell incubator for 1 hour. After the mitochondrial oxygen consumption rate was measured three times in drug-free cells, oxygen consumption rates were measured three times after the administration of oligomycin (1 μM), which is an ATP synthesis inhibitor, three times after the administration of carbonyl cyanide p-trifluoromethoxyphenylhydrazone (0.5 μM), which is a chemical uncoupler, and three times after the administration of rotenone (1 μM) and antimycin A (1 μM), which are electron transport chain inhibitors.

GI50 (786-O): 10 to 20 µM | GI50 (Hep3B): 10 to 20 µM | GI50 (MIA PaCa-2): 5 to 10 µM | GI50 (HeLa): 10 to 20 µM | GI50 (A549; Homo sapiens, A549 lung cancer cell line, 72 hours, read-out: Viability GI50): 1 to 5 µM | GI50 (HCT116; Homo sapiens, HCT-116, HCT116 colorectal cancer cell line, 72 hours, read-out: Viability GI50): 1 to 5 µM | IC50 (MDH1): 1 to 5 µM
SMILES: COC(=O)c1cccc(NC(=O)CCOc2ccc(C(C)(C)CC(C)(C)C)cc2)c1 [Compound 9-2, Methyl 3-(3-(4-(2,4,4-trimethylpentan-2-yl)phenoxy)propanamido)benzoate]
intracellular oxygen concentration (HCT-116 cells [1]): increased | GI50 (Caki-1): 10 to 20 µM | inhibitory effect on proliferation (A549; A549 cells): strong inhibitory effect | inhibitory effect on proliferation (HCT116; HCT116 cells): strong inhibitory effect | HIF-1α protein accumulation (HIF-1α): inhibits HIF-1α protein accumulation in a concentration-dependent manner | basal respiration rate (HCT-116 cells [2]): decrease in a concentration-dependent manner | maximum respiration rate (HCT-116 cells [2]): decrease in a concentration-dependent manner | mitochondrial oxygen consumption rate (HCT-116 cells [2]): inhibited a mitochondrial oxygen consumption rate
